PMC11946255, “Extraction of Cannabinoids and Terpenes from Hemp Flowers and Leaves (Cannabis sativa L., Futura 75): Chemical Profiling and Evaluation of Anticancer Properties” (Molecules, 2025)
Values after ≈ are worked out from the molar mass of the structure shown.

Columns and labels:
lung carcinoma A549 = assay: Antiproliferative activity, SRB assay, A549; format: cell-based, human; conditions: for IC50: Homo sapiens, A549; for IC50 / IC50 A549: 72 h incubation, SRB, mean ± SD; for Calculated Selectivity Index SI A549: SI = IC50 MCF-10A / IC50 A549
[1] = system: colon adenocarcinoma HT-29; assay: Antiproliferative activity, SRB assay, HT-29; format: cell-based, human; conditions: for IC50: Homo sapiens, HT-29; for IC50 / IC50 HT-29: 72 h incubation, SRB, mean ± SD; for Calculated Selectivity Index SI HT-29: SI = IC50 MCF-10A / IC50 HT-29
[2] = system: gastric adenocarcinoma AGS; assay: Antiproliferative activity, SRB assay, AGS; format: cell-based, human; conditions: for IC50: Homo sapiens; for IC50 / IC50 AGS: 72 h incubation, SRB, mean ± SD; for Calculated Selectivity Index SI AGS: SI = IC50 MCF-10A / IC50 AGS
[3] = system: breast cancer MCF-7 (ER+); assay: Antiproliferative activity, SRB assay, MCF-7; format: cell-based, human; conditions: for IC50: Homo sapiens, MCF7; for IC50 / IC50 MCF-7: 72 h incubation, SRB, mean ± SD; for Calculated Selectivity Index SI MCF-7: SI = IC50 MCF-10A / IC50 MCF-7
[4] = system: normal breast epithelial MCF-10A cells; assay: Cytotoxicity, SRB assay, MCF-10A; format: cell-based, human; conditions: 72 h incubation, non-tumorigenic cells, mean ± SD; for IC50: Homo sapiens, MCF-10A
Experimental: (§1) Two extracts, Futu 1 and Futu 2, were selected for the study of their antiproliferative activity against six human cancer cell lines: biphenotypic B myelomonocytic leukemia (MV4-11), lung carcinoma (A549), colon adenocarcinoma (HT-29), gastric adenocarcinoma (AGS), and breast carcinomas (MCF-7 (ER+) and MDA-MB-468 (TNBC)). Additionally, their cytotoxicity and potential safety for use were assessed on normal human breast epithelial cells (MCF-10A). This study aimed to determine the effectiveness of these extracts in inhibiting cancer cell growth while ensuring minimal toxicity to normal cells. The first extract, Futu 1, contained the highest amount of cannabinoid fraction (51.57%) among all tested extracts, and the terpene fraction consisted of 9.8% monoterpenes and 90.2% of sesquiterpenes. Futu 1 was obtained using pressurized extraction with the following process parameters: a pressure of 1 bar, a solvent mixture of hexane/ethanol (7:3, v/v), and a temperature of 25 °C. The second extract, Futu 2, was selected for its higher monoterpene content (19.6%) in the terpene fraction in comparison to sesquiterpenes (80.4%) and its 49.49% content of cannabinoids. This extract was also obtained via pressurized extraction, using a pressure of 1 bar, a solvent mixture of hexane/isopropanol (7:3, v/v), and a temperature of −55 °C. After 72 h of incubation of cancer and normal cells with cannabinoids and the extracts Futu 1 or Futu 2, antiproliferative activity was assessed using the MTT assay (for MV4-11) or the SRB assay. The percentage of cell growth inhibition was calculated and IC50 values were determined (Table 3).
(§2) Human cell lines: biphenotypic B myelomonocytic leukemia MV4-11, gastric adenocarcinoma AGS, colon adenocarcinoma HT-29, and normal breast MCF-10A cells were obtained from American Type Culture Collection (ATCC) in the United States; lung carcinoma A549 and breast cancer MCF-7 were obtained from European Collection of Authenticated Cell Cultures (ECACC). Human breast cancer MDA-MB-468 cells were obtained from Leibniz Institute DSMZ (German Collection of Microorganisms and Cell Cultures). All the cell lines were maintained at the Hirszfeld Institute of Immunology and Experimental Therapy, PAS, Wroclaw, Poland. MV4-11 and MDA-MB-468 cells were cultured in RPMI 1640 medium (IIET PAS, Wrocław, Poland) with 1.0 mM sodium pyruvate (only MV4-11) and 10% (MV4-11) or 20% (MDA-MB-468) fetal bovine serum (FBS) (all from Merck, Darmstadt, Germany). A549, HT-29, and AGS cells were cultured in RPMI 1640 + Opti-MEM (1:1) medium (IIET PAS, Wrocław, Poland, and Gibco, London, UK) supplemented with 5% FBS (Merck, Darmstadt, Germany) and 1.0 mM sodium pyruvate (only HT-29). The MCF-7 cells were cultured in Eagle medium (IIET PAS, Wrocław, Poland) supplemented with 8 microg/mL of insulin and 1% MEM NON-Essential amino acid (all Merck, Darmstadt, Germany). Normal breast epithelial MCF-10A cells were cultured in the HAM’S F-12 medium, which was supplemented with 10% Horse Serum (Gibco, London, UK), 20 ng/mL EGFh, 10 µg/mL insulin, and 0.5 µg/mL Hydrocortisone and 0.05 mg/mL Cholera Toxin from Vibrio cholerae were from Merck, Darmstadt, Germany.
The antiproliferative activity of cannabinoids (in concentrations of 1 mg/mL in methanol) and the plant extracts named Futu1 and Futu2 (the solutions were prepared by dissolving the substance in methanol to a concentration of 50 mg/mL) were tested against 6 cancer cell lines. Their cytotoxicity was also tested against one normal cell line. The tested mixtures of compounds were diluted in a culture medium to reach the final concentrations. Before adding the tested compounds (24 h prior), the cells were plated in 384-well plates (Greiner Bio-One) at a density of 1 × 10^3 (A549), 1.5 × 10^3 (MDA-MB-468, HT-29, MCF-7), or 2 × 10^3 (AGS, MCF-10A) cells per well. The MV4-11 cells were plated in 96-well plates (Corning) at a density of 5 × 10^3 cells per well. […]

[5] = system: biphenotypic B myelomonocytic leukemia MV4-11; assay: Antiproliferative activity, MTT assay, MV4-11; format: cell-based, human; conditions: 2 μg/mL, 72 h, compared to untreated control cells
Experimental: as §1
as §2, with “The MCF-7 cells were cultured in Eagle medium (IIET PAS, Wrocław, Poland) supplemented with 8 microg/mL of insulin and 1% MEM NON-Essential amino acid (all Merck, Darmstadt, Germany). Normal breast epithelial MCF-10A cells were cultured in the HAM’S F-12 medium, which was supplemented with 10% Horse Serum (Gibco, London, UK), 20 ng/mL EGFh, 10 µg/mL insulin, and 0.5 µg/mL Hydrocortisone and 0.05 mg/mL Cholera Toxin from Vibrio cholerae were from Merck, Darmstadt, Germany.” left out

[6] = system: lung (A549), colon (HT-29), gastric (AGS), and breast (MCF-7, ER+) cancer cell lines; assay: Antiproliferative activity, SRB assay, summarised over the cancer cell lines; format: cell-based; conditions: Homo sapiens; 72 h, range across the four cancer cell lines
Experimental: as §1, with “The second extract, Futu 2, was selected for its higher monoterpene content (19.6%) in the terpene fraction in comparison to sesquiterpenes (80.4%) and its 49.49% content of cannabinoids. This extract was also obtained via pressurized extraction, using a pressure of 1 bar, a solvent mixture of hexane/isopropanol (7:3, v/v), and a temperature of −55 °C.” left out, “3). […]” for “3).”

CCCCCc1cc(O)c2c(c1)OC(C)(C)c1ccc(C)cc1-2 [CBN, cannabinol]
IC50 (lung carcinoma A549): 3.3 ± 0.15 µg/mL (≈ 10.6 µM)
Calculated Selectivity Index SI A549 (lung carcinoma A549): 3.27
IC50 [1]: 6.07 ± 2.11 µg/mL (≈ 19.6 µM)
Calculated Selectivity Index SI HT-29 [1]: 1.78
IC50 [2]: 6.18 ± 0.98 µg/mL (≈ 19.9 µM)
Calculated Selectivity Index SI AGS [2]: 1.75
IC50 [3]: 5.79 ± 1.79 µg/mL (≈ 18.7 µM)
Calculated Selectivity Index SI MCF-7 [3]: 1.87
IC50 [4]: 10.8 ± 0.68 µg/mL (≈ 34.8 µM)
Stimulation of MV4-11 cell growth [5]: 140%

CCCCCc1cc(O)c2c(c1)OC(C)(CCC=C(C)C)C=C2 (centres unmarked) [CBC, cannabichromene]
IC50 (lung carcinoma A549): 3.26 ± 0.2 µg/mL (≈ 10.4 µM)
Calculated Selectivity Index SI A549 (lung carcinoma A549): 3.23
IC50 [1]: 5.94 ± 1.86 µg/mL (≈ 18.9 µM)
Calculated Selectivity Index SI HT-29 [1]: 1.77
IC50 [2]: 5.53 ± 0.88 µg/mL (≈ 17.6 µM)
Calculated Selectivity Index SI AGS [2]: 1.9
IC50 [3]: 7.56 ± 1.52 µg/mL (≈ 24 µM)
Calculated Selectivity Index SI MCF-7 [3]: 1.39
IC50 [4]: 10.5 ± 0.46 µg/mL (≈ 33.5 µM)
Stimulation of MV4-11 cell growth [5]: 140%

CCCCCc1cc(O)c(C/C=C(\C)CCC=C(C)C)c(O)c1 [CBG, cannabigerol]
IC50 (lung carcinoma A549): 3.71 ± 0.46 µg/mL (≈ 11.7 µM)
Calculated Selectivity Index SI A549 (lung carcinoma A549): 2.89
IC50 [1]: 10 ± 1.14 µg/mL (≈ 31.7 µM)
Calculated Selectivity Index SI HT-29 [1]: 1.07
IC50 [2]: 6.11 ± 1.31 µg/mL (≈ 19.3 µM)
Calculated Selectivity Index SI AGS [2]: 1.76
IC50 [3]: 7.43 ± 1.43 µg/mL (≈ 23.5 µM)
Calculated Selectivity Index SI MCF-7 [3]: 1.45
IC50 [4]: 10.7 ± 0.71 µg/mL (≈ 33.9 µM)

C=C(C)[C@@H]1CCC(C)=C[C@H]1c1c(O)cc(CCC)cc1O [CBDV]
IC50 A549 (lung carcinoma A549): 6.22 ± 2.26 µg/mL (≈ 21.7 µM)
Calculated Selectivity Index SI A549 (lung carcinoma A549): 1.81
IC50 HT-29 [1]: 3.6 ± 0.4 µg/mL (≈ 12.6 µM)
Calculated Selectivity Index SI HT-29 [1]: 3.12
IC50 AGS [2]: 8.4 ± 1.98 µg/mL (≈ 29.3 µM)
Calculated Selectivity Index SI AGS [2]: 1.34
IC50 MCF-7 [3]: 8.43 ± 2.05 µg/mL (≈ 29.4 µM)
Calculated Selectivity Index SI MCF-7 [3]: 1.33
IC50 MCF-10A [4]: 11.24 ± 0.26 µg/mL (≈ 39.2 µM)

CCCCCc1cc(O)c2c(c1)OC(C)(C)[C@@H]1CCC(C)=C[C@@H]21 (relative stereo) [THC, (–)-trans-Δ^9-tetrahydrocannabinol]
IC50 A549 (lung carcinoma A549): 3.94 ± 0.44 µg/mL (≈ 12.5 µM)
Calculated Selectivity Index SI A549 (lung carcinoma A549): 2.82
IC50 HT-29 [1]: 3.73 ± 0.59 µg/mL (≈ 11.9 µM)
Calculated Selectivity Index SI HT-29 [1]: 2.98
IC50 AGS [2]: 6.35 ± 1.35 µg/mL (≈ 20.2 µM)
Calculated Selectivity Index SI AGS [2]: 1.75
IC50 MCF-7 [3]: 8.4 ± 1.26 µg/mL (≈ 26.7 µM)
Calculated Selectivity Index SI MCF-7 [3]: 1.33
IC50 MCF-10A [4]: 11.13 ± 0.72 µg/mL (≈ 35.4 µM)
Stimulation of MV4-11 cell growth [5]: 180%

C=C(C)[C@@H]1CCC(C)=C[C@H]1c1c(O)cc(CCCCC)cc1O [CBD, cannabidiol]
IC50 (lung carcinoma A549): 2.87 ± 0.24 µg/mL (≈ 9.13 µM)
Calculated Selectivity Index SI A549 (lung carcinoma A549): 3.68
IC50 [1]: 3.04 ± 0.52 µg/mL (≈ 9.67 µM)
Calculated Selectivity Index SI HT-29 [1]: 3.47
IC50 [2]: 3.74 ± 0.28 µg/mL (≈ 11.9 µM)
Calculated Selectivity Index SI AGS [2]: 2.82
IC50 [3]: 3.67 ± 0.55 µg/mL (≈ 11.7 µM)
Calculated Selectivity Index SI MCF-7 [3]: 2.87
IC50 [4]: 10.6 ± 0.63 µg/mL (≈ 33.5 µM)
Stimulation of MV4-11 cell growth [5]: 140%
IC50 [6]: 2.87 to 3.74 µg/mL (≈ 9.13 to 11.9 µM)
